In patent US20110038917A1, “THERAPEUTIC COMPOSITIONS AND METHODS FOR TREATING GRAM-NEGATIVE BACTERIAL INFECTIONS” (RQ Bioscience, Inc., priority 2007, published 2011):

Test system: Pseudomonas aeruginosa infection
Assay: Self-administered inhalation by a cystic fibrosis patient with Pseudomonas aeruginosa infection: patient-reported signs of infection
Format: in vivo, human
Settings: for initial response of asthma and coughing to the antibiotic regimen: ciprofloxacin 2×1000 mg, Zithromax 1×500 mg daily and TOBI 2×5mg given together; for severity of asthma, frequency of coughing and quantity of expectorated mucus after three months on the antibiotics: ciprofloxacin, Zithromax and TOBI given together
Source text: I. A cystic fibrosis patient described their asthma as increasingly severe and being present constantly during the day. They reported being more short-breathed than previously, often experiencing difficulty breathing after walking only 50 meters. They also reported an increasingly persistent cough, which escalated to almost every minute. They also described coughing up a “fluorescent light green” mucus. The patient further reported losing about 3.5 kg of weight.
After a lab test by their cystic fibrosis doctor, the patient was diagnosed with a Pseudomonas aeruginosa infection. They were prescribed the antibiotics ciprofloxacin (2×1000 mg), Zithromax® (azithromycin, 1×500 mg daily) and TOBI, an aerosolized form of tobramycin (2×5mg). […]
The patient reports that during the past 3 months they have resumed using the lactoferrin/OPC combination, as well as TOBI twice a day and Zithromax, and pulmozyme.

SMILES | initial response of asthma and coughing to the antibiotic regimen | severity of asthma, frequency of coughing and quantity of expectorated mucus after three months on the antibiotics
CC[C@H]1OC(=O)[C@H](C)[C@@H](O[C@H]2C[C@@](C)(OC)[C@@H](O)[C@H](C)O2)[C@H](C)[C@@H](O[C@@H]2O[C@H](C)C[C@H](N(C)C)[C@H]2O)[C@](C)(O)C[C@@H](C)CN(C)[C@H](C)[C@@H](O)[C@]1(C)O [Zithromax, azithromycin] | initial noticeable decrease in both the asthma and coughing | began increasing
O=C(O)c1cn(C2CC2)c2cc(N3CCNCC3)c(F)cc2c1=O [ciprofloxacin] | initial noticeable decrease in both the asthma and coughing | began increasing
